{
  "source": "patent US11267800B2",
  "about": "“Cyclohexyl acid triazole azines as LPA antagonists” (BRISTOL-MYERS SQUIBB COMPANY, priority 2017, dated 2022)",
  "note": "Counter-ions that a name gives are not always drawn.",
  "data": [
    {"target": "T1, human LPA1 (Homo sapiens, UniProt Q92633)", "T1 construct": "expressed in transfected cells; host or cells: Chinese hamster ovary (CHO) cells", "T1 sequence (Q92633 whole entry)": "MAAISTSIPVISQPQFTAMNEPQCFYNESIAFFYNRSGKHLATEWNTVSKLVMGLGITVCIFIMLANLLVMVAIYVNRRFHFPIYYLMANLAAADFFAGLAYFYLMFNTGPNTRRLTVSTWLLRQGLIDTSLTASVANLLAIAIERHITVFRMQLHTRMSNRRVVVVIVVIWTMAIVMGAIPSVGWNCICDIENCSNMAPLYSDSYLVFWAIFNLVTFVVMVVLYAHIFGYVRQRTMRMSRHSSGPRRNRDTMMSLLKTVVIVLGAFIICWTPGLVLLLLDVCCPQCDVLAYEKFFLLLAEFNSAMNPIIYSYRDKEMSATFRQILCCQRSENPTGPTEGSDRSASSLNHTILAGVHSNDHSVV", "experiment": "LPA1 functional antagonist assay (calcium flux)", "format": "cell-based", "settings": "CHO cells overexpressing human LPA1; inhibition of calcium flux induced by 10 nM LPA; read-out: hLPA1 IC50", "how_it_was_run": "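IC50 values come from 4-parameter logistic fits and mark 50% block of the calcium flux evoked by 10 nM LPA. Human LPA1-overexpressing CHO cells were calcium-dye loaded at 37 °C, then given test compound (0.08 nM–5 μM, 0.5% DMSO, HEPES-buffered HBSS with 0.1% fatty-acid-free BSA) for 20 min at room temperature before agonist.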", "units": {"IC50": "nM"}, "values": [
      {"smiles": "Cc1nc(-c2nnn(C)c2CNc2nccc(C3CC(F)(F)C3)n2)ccc1O[C@H]1CCC[C@H](C(=O)O)C1", "note": "[Example 160]", "IC50": 17},
      {"smiles": "COC(=O)c1cc(C(C)(C)C)nc(NCc2c(-c3ccc(O[C@H]4CCC[C@H](C(=O)O)C4)c(C)n3)nnn2C)n1", "note": "[Example 161]", "IC50": 443},
      {"smiles": "Cc1nc(-c2nnn(C)c2CNc2nc(C(N)=O)cc(C(C)(C)C)n2)ccc1O[C@H]1CCC[C@H](C(=O)O)C1", "note": "[Example 162]", "IC50": 2370},
      {"smiles": "COC(=O)c1cc(C2CCC2)nc(NCc2c(-c3ccc(O[C@H]4CCC[C@H](C(=O)O)C4)c(C)n3)nnn2C)n1", "note": "[Example 163]", "IC50": 168},
      {"smiles": "Cc1nc(-c2nnn(C)c2CNc2nc(C#N)cc(C3CCC3)n2)ccc1O[C@H]1CCC[C@H](C(=O)O)C1", "note": "[Example 164]", "IC50": 42},
      {"smiles": "Cc1nc(-c2nnn(C)c2CNc2nc(C(N)=O)cc(C3CCC3)n2)ccc1O[C@H]1CCC[C@H](C(=O)O)C1", "note": "[Example 165]", "IC50": 243},
      {"smiles": "Cc1nc(-c2nnn(C)c2CNc2nc(C#N)cc(C(C)(C)C)n2)ccc1O[C@H]1CCC[C@H](C(=O)O)C1", "note": "[Example 166]", "IC50": 180},
      {"smiles": "Cc1nc(-c2nnn(C)c2CNc2nccc(C3(C)CC(F)(F)C3)n2)ccc1O[C@H]1CCC[C@H](C(=O)O)C1", "note": "[Example 167]", "IC50": 55},
      {"smiles": "Cc1nc(-c2nnn(C)c2CNc2ncc(C#N)c(C3CCC3)n2)ccc1O[C@H]1CCC[C@H](C(=O)O)C1", "note": "[Example 168]", "IC50": 129},
      {"smiles": "COc1cc(C(C)(C)C)nc(NCc2c(-c3ccc(O[C@H]4CCC[C@H](C(=O)O)C4)c(C)n3)nnn2C)n1", "note": "[Example 169]", "IC50": 86},
      {"smiles": "COc1cc(C2CCC2)nc(NCc2c(-c3ccc(O[C@H]4CCC[C@H](C(=O)O)C4)c(C)n3)nnn2C)n1", "note": "[Example 170]", "IC50": 16},
      {"smiles": "Cc1nc(-c2nnn(C)c2CNc2ncc(C#N)c(C(C)(C)C)n2)ccc1O[C@H]1CCC[C@H](C(=O)O)C1", "note": "[Example 171]", "IC50": 177},
      {"smiles": "COc1cc(OC)nc(NCc2c(-c3ccc(O[C@H]4CCC[C@H](C(=O)O)C4)c(C)n3)nnn2C)n1", "note": "[Example 172]", "IC50": 61},
      {"smiles": "CCOc1cc(OCC)nc(NCc2c(-c3ccc(O[C@H]4CCC[C@H](C(=O)O)C4)c(C)n3)nnn2C)n1", "note": "[Example 173]", "IC50": 127},
      {"smiles": "CCOc1cc(C)nc(NCc2c(-c3ccc(O[C@H]4CCC[C@H](C(=O)O)C4)c(C)n3)nnn2C)n1", "note": "[Example 174]", "IC50": 56},
      {"smiles": "Cc1nc(-c2nnn(C)c2CNc2nc(OC(C)C)cc(OC(C)C)n2)ccc1O[C@H]1CCC[C@H](C(=O)O)C1", "note": "[Example 175]", "IC50": 384},
      {"smiles": "COc1cc(C(C)C)nc(NCc2c(-c3ccc(O[C@H]4CCC[C@H](C(=O)O)C4)c(C)n3)nnn2C)n1", "note": "[Example 176]", "IC50": 27},
      {"smiles": "CCCOc1nc(NCc2c(-c3ccc(O[C@H]4CCC[C@H](C(=O)O)C4)c(C)n3)nnn2C)nc(OC)n1", "note": "[Example 177]", "IC50": 250},
      {"smiles": "Cc1nc(-c2nnn(C)c2CNc2nncc(C(C)(C)C)n2)ccc1O[C@H]1CCC[C@H](C(=O)O)C1", "note": "[Example 178]", "IC50": 498},
      {"smiles": "Cc1nc(-c2nnn(C)c2CNc2cc(OC3CCC3)ccn2)ccc1O[C@H]1CCC[C@H](C(=O)O)C1", "note": "[Example 180]", "IC50": 246},
      {"smiles": "Cc1nc(-c2nnn(C)c2CNc2ncnc(C(C)C)n2)ccc1O[C@H]1CCC[C@H](C(=O)O)C1", "note": "[Example 181]", "IC50": 106},
      {"smiles": "Cc1nc(-c2nnn(C)c2CNc2ncnc(C(C)(C)C)n2)ccc1O[C@H]1CCC[C@H](C(=O)O)C1", "note": "[Example 182]", "IC50": 693},
      {"smiles": "Cc1nc(-c2nnn(C)c2CNc2ncnc(C3CCC3)n2)ccc1O[C@H]1CCC[C@H](C(=O)O)C1", "note": "[Example 183]", "IC50": 54},
      {"smiles": "Cc1nc(-c2nnn(C)c2CNc2ncnc(C3CCCC3)n2)ccc1O[C@H]1CCC[C@H](C(=O)O)C1", "note": "[Example 184]", "IC50": 90},
      {"smiles": "Cc1nc(-c2nnn(C)c2CNc2ncnc(C3CCCCC3)n2)ccc1O[C@H]1CCC[C@H](C(=O)O)C1", "note": "[Example 185]", "IC50": 288},
      {"smiles": "Cc1nc(-c2nnn(C)c2CNc2nc(O)nc(C3CCCCC3)n2)ccc1O[C@H]1CCC[C@H](C(=O)O)C1", "note": "[Example 186]", "IC50": 717},
      {"smiles": "Cc1nc(-c2nnn(C)c2CNc2ncnc(C3CC3)n2)ccc1O[C@H]1CCC[C@H](C(=O)O)C1", "note": "[Example 187, (1S,3S)-3-((6-(5-(((4-Cyclopropyl-1,3,5-triazin-2-yl)amino)methyl)-1-methyl-1H-1,2,3-triazol-4-yl)-2-methylpyridin-3-yl)oxy)cyclohexane-1-carboxylic acid, bis TFA Salt]", "IC50": 48},
      {"smiles": "Cc1nc(NCc2c(-c3ccc(O[C@H]4CCC[C@H](C(=O)O)C4)c(C)n3)nnn2C)nc(C2CC2)n1", "note": "[Example 188, (1S,3S)-3-((6-(5-(((4-Cyclopropyl-6-methyl-1,3,5-triazin-2-yl)amino)methyl)-1-methyl-1H-1,2,3-triazol-4-yl)-2-methylpyridin-3-yl)oxy)cyclohexane-1-carboxylic acid, bis TFA Salt]", "IC50": 138},
      {"smiles": "CCCCc1cnnc(NCc2c(-c3ccc(O[C@H]4CCC[C@H](C(=O)O)C4)c(C)n3)nnn2C)c1", "note": "[Example 189, (1S,3S)-3-((6-(5-(((5-Butylpyridazin-3-yl)amino)methyl)-1-methyl-1H-1,2,3-triazol-4-yl)-2-methylpyridin-3-yl)oxy)cyclohexane-1-carboxylic acid, bis TFA salt]", "IC50": 108},
      {"smiles": "Cc1nc(-c2nnn(C)c2CNc2cc(OC3CCC3)cnn2)ccc1O[C@H]1CCC[C@H](C(=O)O)C1", "note": "[Example 190, (1S,3S)-3-((6-(5-(((5-Cyclobutoxypyridazin-3-yl)amino)methyl)-1-methyl-1H-1,2,3-triazol-4-yl)-2-methylpyridin-3-yl)oxy)cyclohexane-1-carboxylic acid, bis TFA Salt]", "IC50": 187},
      {"smiles": "Cc1nc(-c2nnn(C)c2CNc2nnccc2OC2CCC2)ccc1O[C@H]1CCC[C@H](C(=O)O)C1", "note": "[Example 191, (1S,3S)-3-((6-(5-(((4-Cyclobutoxypyridazin-3-yl)amino)methyl)-1-methyl-1H-1,2,3-triazol-4-yl)-2-methylpyridin-3-yl)oxy)cyclohexane-1-carboxylic acid, bis TFA Salt]", "IC50": 103},
      {"smiles": "Cc1nc(-c2nnn(C)c2CNc2nncc(-c3ccccc3)n2)ccc1O[C@H]1CCC[C@H](C(=O)O)C1", "note": "[Example 192, (1S,3S)-3-((2-Methyl-6-(1-methyl-5-(((5-phenyl-1,2,4-triazin-3-yl)amino)methyl)-1H-1,2,3-triazol-4-yl)pyridin-3-yl)oxy)cyclohexane-1-carboxylic acid, bis TFA Salt]", "IC50": 53},
      {"smiles": "CCCCc1cnnc(NCc2c(-c3ccc(O[C@H]4CCC[C@H](C(=O)O)C4)c(C)n3)nnn2C)n1", "note": "[Example 193, (1S,3S)-3-((6-(5-(((5-Butyl-1,2,4-triazin-3-yl)amino)methyl)-1-methyl-1H-1,2,3-triazol-4-yl)-2-methylpyridin-3-yl)oxy)cyclohexane-1-carboxylic acid, bis TFA]", "IC50": 6.8},
      {"smiles": "CCc1ncnc(NCc2c(-c3ccc(O[C@H]4CCC[C@H](C(=O)O)C4)c(C)n3)nnn2C)n1", "note": "[Example 194, (1S,3S)-3-((6-(5-(((4-Ethyl-1,3,5-triazin-2-yl)amino)methyl)-1-methyl-1H-1,2,3-triazol-4-yl)-2-methyl-pyridin-3-yl)oxy)cyclohexane-1-carboxylic acid]", "IC50": 63},
      {"smiles": "CCCc1ncnc(NCc2c(-c3ccc(O[C@H]4CCC[C@H](C(=O)O)C4)c(C)n3)nnn2C)n1", "note": "[Example 195, (1S,3S)-3-((2-Methyl-6-(1-methyl-5-(((4-propyl-1,3,5-triazin-2-yl)amino)methyl)-1H-1,2,3-triazol-4-yl)pyridin-3-yl)oxy)cyclohexane-1-carboxylic acid]", "IC50": 225},
      {"smiles": "Cc1ncnc(NCc2c(-c3ccc(O[C@H]4CCC[C@H](C(=O)O)C4)c(C)n3)nnn2C)n1", "note": "[Example 196, (1S,3S)-3-((2-Methyl-6-(1-methyl-5-(((4-methyl-1,3,5-triazin-2-yl)amino)methyl)-1H-1,2,3-triazol-4-yl)pyridin-3-yl)oxy)cyclohexane-1-carboxylic acid]", "IC50": 2190},
      {"smiles": "CCCCc1ncnc(NCc2c(-c3ccc(O[C@H]4CCC[C@H](C(=O)O)C4)c(C)n3)nnn2C)n1", "note": "[Example 199, (1S,3S)-3-((6-(5-(((4-Butyl-1,3,5-triazin-2-yl)amino)methyl)-1-methyl-1H-1,2,3-triazol-4-yl)-2-methyl-pyridin-3-yl)oxy)cyclohexane-1-carboxylic acid]", "IC50": 29},
      {"smiles": "Cc1nc(-c2nnn(C)c2CNc2ncnc(CC(C)C)n2)ccc1O[C@H]1CCC[C@H](C(=O)O)C1", "note": "[Example 200, (1S,3S)-3-((6-(5-(((4-Isobutyl-1,3,5-triazin-2-yl)amino)methyl)-1-methyl-1H-1,2,3-triazol-4-yl)-2-methyl-pyridin-3-yl)oxy)cyclohexane-1-carboxylic acid]", "IC50": 77},
      {"smiles": "COc1nc(NCc2c(-c3ccc(O[C@H]4CCC[C@H](C(=O)O)C4)c(C)n3)nnn2C)nc(C2CC2)n1", "note": "[Example 201, (1S,3S)-3-((6-(5-(((4-Cyclopropyl-6-methoxy-1,3,5-triazin-2-yl)amino)methyl)-1-methyl-1H-1,2,3-triazol-4-yl)-2-methylpyridin-3-yl)oxy)cyclohexane-1-carboxylic acid, bis TFA Salt]", "IC50": 105},
      {"smiles": "CCOc1nc(NCc2c(-c3ccc(O[C@H]4CCC[C@H](C(=O)O)C4)c(C)n3)nnn2C)nc(C2CC2)n1", "note": "[Example 202, (1S,3S)-3-((6-(5-(((4-Cyclopropyl-6-ethoxy-1,3,5-triazin-2-yl)amino)methyl)-1-methyl-1H-1,2,3-triazol-4-yl)-2-methylpyridin-3-yl)oxy) cyclohexane-1-carboxylic acid]", "IC50": 32},
      {"smiles": "CCc1nc(CC)nc(NCc2c(-c3ccc(O[C@H]4CCC[C@H](C(=O)O)C4)c(C)n3)nnn2C)n1", "note": "[Example 203, (1S,3S)-3-((6-(5-(((4,6-Diethyl-1,3,5-triazin-2-yl)amino)methyl)-1-methyl-1H-1,2,3-triazol-4-yl)-2-methyl-pyridin-3-yl)oxy)cyclohexane-1-carboxylic acid]", "IC50": 59}
    ]}
  ]
}
